Test: Metabolic stability in human liver microsomes at 1 uM in presence of NADPH regenerating system measured up to 60 mins by UFLC-MS/MS analysis
Assay type: ADME, Microsome
Conditions: 1 h

COc1ccc(N(C)c2nc(C)nc3ccccc23)cc1OCC(=O)NO
Stabilty: Unstable
